How the values were obtained:
Experiment in all cases: Cysteine liganding, probe competition
Format in all cases: binding
[1] = biological target: T1, UBR5 E3 ubiquitin-protein ligase UBR5 (Homo sapiens, UniProt O95071)
T1 construct: Cells were resuspended in cold PBS on ice and sonicated with a probe sonicator to achieve lysis; endogenous in cells
Method in brief: (§1)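 Probe competition in native proteome: 5 mg/ml lysate, compound 1 hr 25° C, then desthiobiotin iodoacetamide (10 mM stock) 1 hr 25° C; acetone ppt, urea/DTT reduction, iodoacetamide alkylation, trypsin, streptavidin pull-down.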

[2] = biological target: T2, KDSR 3-ketodihydrosphingosine reductase (Homo sapiens, UniProt Q06136)
T2 construct: Cells were resuspended in cold PBS on ice and sonicated with a probe sonicator to achieve lysis; endogenous in cells
T2 sequence (Q06136 26-332): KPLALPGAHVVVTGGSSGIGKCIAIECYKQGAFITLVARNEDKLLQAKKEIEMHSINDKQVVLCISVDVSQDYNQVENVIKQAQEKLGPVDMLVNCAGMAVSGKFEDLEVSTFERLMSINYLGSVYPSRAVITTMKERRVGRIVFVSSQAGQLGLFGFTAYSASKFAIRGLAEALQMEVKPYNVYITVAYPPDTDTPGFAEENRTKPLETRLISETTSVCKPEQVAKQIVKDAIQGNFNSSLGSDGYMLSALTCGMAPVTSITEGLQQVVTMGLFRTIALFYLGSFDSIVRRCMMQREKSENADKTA
Method in brief: as §1

[3] = biological target: T3, NUBP1 Cytosolic Fe—S cluster assembly factor NUBP1 (Homo sapiens, UniProt P53384); details: for Liganded: NUBP1 Res# 31, uniprot P53384
T3 construct: Cells were resuspended in cold PBS on ice and sonicated with a probe sonicator to achieve lysis; endogenous in cells
T3 sequence (P53384 1-320): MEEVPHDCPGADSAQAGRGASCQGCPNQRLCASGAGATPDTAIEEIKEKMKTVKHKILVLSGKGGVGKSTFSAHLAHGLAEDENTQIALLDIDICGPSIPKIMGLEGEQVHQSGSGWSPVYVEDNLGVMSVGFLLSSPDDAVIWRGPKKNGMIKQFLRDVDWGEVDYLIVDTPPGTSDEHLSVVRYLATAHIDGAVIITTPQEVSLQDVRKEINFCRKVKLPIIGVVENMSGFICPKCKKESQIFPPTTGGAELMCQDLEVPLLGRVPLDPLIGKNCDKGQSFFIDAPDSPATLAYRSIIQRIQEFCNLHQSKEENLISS
Method in brief: as §1

T1 sequence (O95071 whole entry): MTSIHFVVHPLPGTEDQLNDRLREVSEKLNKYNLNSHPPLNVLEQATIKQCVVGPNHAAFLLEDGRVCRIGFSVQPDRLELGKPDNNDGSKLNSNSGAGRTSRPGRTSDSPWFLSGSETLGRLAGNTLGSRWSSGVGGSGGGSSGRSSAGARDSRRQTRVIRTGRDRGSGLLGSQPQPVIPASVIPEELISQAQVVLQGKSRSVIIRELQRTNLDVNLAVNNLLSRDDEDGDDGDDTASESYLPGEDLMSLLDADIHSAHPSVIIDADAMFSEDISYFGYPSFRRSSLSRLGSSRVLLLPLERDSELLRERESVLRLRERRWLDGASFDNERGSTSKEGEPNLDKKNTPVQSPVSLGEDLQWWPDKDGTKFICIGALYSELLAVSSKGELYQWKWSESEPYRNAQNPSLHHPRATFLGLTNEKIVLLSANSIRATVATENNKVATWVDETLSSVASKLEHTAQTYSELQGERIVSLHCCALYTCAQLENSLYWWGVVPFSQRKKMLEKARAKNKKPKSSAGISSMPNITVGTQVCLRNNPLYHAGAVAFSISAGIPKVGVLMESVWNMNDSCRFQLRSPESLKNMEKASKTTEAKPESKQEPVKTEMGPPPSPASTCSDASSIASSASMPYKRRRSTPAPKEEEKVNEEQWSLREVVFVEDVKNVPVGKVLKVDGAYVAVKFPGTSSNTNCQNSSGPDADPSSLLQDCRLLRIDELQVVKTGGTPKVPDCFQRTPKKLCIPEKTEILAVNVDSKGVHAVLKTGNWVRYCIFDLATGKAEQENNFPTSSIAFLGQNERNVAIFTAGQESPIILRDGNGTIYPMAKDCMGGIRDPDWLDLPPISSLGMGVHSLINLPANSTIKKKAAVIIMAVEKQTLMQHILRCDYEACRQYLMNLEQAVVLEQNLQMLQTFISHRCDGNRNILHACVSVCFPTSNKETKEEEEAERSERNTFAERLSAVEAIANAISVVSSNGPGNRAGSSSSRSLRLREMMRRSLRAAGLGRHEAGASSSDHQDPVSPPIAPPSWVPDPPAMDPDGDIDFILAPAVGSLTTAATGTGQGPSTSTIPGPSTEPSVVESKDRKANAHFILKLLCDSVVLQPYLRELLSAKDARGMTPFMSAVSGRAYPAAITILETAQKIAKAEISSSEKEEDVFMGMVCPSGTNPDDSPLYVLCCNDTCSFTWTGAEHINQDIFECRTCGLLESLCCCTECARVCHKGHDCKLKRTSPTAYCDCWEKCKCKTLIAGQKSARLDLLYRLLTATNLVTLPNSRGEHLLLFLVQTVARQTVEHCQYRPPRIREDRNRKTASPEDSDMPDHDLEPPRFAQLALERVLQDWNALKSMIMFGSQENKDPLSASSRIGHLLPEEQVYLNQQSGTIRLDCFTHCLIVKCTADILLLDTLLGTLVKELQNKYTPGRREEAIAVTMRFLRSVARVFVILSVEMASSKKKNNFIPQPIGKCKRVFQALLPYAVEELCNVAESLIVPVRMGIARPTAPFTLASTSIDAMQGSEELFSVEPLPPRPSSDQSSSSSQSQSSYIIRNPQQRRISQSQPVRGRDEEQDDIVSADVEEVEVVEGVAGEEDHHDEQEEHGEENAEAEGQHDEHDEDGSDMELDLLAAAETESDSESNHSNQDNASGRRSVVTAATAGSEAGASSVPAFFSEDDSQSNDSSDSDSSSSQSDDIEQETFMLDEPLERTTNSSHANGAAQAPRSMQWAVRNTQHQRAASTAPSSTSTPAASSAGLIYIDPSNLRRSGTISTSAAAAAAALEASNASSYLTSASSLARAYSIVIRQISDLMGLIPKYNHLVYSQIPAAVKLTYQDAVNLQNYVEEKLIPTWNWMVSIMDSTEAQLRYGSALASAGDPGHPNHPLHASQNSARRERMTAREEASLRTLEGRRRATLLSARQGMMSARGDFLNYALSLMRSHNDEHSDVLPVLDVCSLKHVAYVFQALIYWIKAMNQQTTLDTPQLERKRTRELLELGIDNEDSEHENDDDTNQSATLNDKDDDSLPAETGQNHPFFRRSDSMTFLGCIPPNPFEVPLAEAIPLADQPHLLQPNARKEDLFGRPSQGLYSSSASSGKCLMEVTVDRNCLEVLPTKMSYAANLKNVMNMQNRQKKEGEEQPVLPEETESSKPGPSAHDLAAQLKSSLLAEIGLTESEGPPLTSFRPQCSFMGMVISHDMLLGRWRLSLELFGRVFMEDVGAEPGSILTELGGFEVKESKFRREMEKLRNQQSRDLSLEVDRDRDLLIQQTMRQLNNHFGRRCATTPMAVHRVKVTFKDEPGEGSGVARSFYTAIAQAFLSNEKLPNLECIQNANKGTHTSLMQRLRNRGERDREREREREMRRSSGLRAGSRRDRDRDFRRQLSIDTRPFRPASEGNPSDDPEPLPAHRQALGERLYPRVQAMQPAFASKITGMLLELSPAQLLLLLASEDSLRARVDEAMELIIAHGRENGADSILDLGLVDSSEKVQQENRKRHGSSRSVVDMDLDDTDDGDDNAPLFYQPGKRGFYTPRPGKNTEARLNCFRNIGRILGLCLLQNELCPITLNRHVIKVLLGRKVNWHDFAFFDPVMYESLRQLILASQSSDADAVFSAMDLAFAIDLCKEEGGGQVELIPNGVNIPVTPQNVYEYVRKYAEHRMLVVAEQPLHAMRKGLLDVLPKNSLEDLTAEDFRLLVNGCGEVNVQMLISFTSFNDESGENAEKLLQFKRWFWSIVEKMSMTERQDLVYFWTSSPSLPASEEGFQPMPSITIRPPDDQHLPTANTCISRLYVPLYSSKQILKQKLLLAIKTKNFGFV

Compound	Liganded ([1]; UBR5 Res# 2314, uniprot O95071)	Liganded ([2]; KDSR Res# 121, uniprot Q06136)	Liganded [3]	100 ave ([1]; uniprot O95071)	500 Max ([1]; uniprot O95071)	500 ave ([1]; uniprot O95071)	100 Max ([1]; uniprot O95071, unit assumed)	100 ave ([2]; uniprot Q06136)	100 Max ([2]; uniprot Q06136, in % (unit assumed))	100 ave ([3]; uniprot P53384)	500 Max ([3]; uniprot P53384)	500 ave ([3]; uniprot P53384)	100 Max ([3]; uniprot P53384, in % (unit assumed))
COc1ccc2c(c1)CCCN2C(=O)CCl [KB02]	YES	YES	YES	–	–	–	–	–	–	–	–	–	–
O=C(CCl)Nc1cc(C(F)(F)F)cc(C(F)(F)F)c1 [KBO3]	–	–	YES	−2.4	33.0	26.8	9.2%	−22.72	−22.72	7.3775	75.8	55.66	28.64

— patent US20200239530A1, “COMPOUNDS AND METHODS OF MODULATING PROTEIN DEGRADATION” (Vividion Therapeutics, Inc., priority 2017, published 2020)
